Experimental data from US20110039896A1, “NOVEL 2-PYRROLIDINYL-3-AMIDO-6-AMINO-PYRIDINE DERIVATIVES USEFUL AS POTASSIUM CHANNEL ACTIVATORS” (NeuroSearch A/S, priority 2007, published 2011).

Biological target: T1, human Kv72+3 channels (Homo sapiens, UniProt O43525+O43526)
T1 construct: expressed in transfected cells
Assay: Patch-clamp on HEK293 cells stably expressing human Kv7.2+3 channels
Format: cell-based
Details: conc. 0.03 μM, −30 mV, 20 ms, current relative to baseline current defined as 100%, read-out: IK (%)
Text: The effect obtained by these channel activators is described as a percentage increase in baseline current at a given concentration. The baseline current is defined as 100%, and an increase in current is expressed relative to this, i.e. an increase from 1 nA to 1.2 nA is reported as 120%.

First: O=C(Cc1ccc(C(F)(F)F)c(F)c1)Nc1ccc(NCc2ccc(F)cc2)nc1N1CCCC1 [Compound 1, N-[6-(4-Fluoro-benzylamino)-2-pyrrolidin-1-yl-pyridin-3-yl]-2-(3-fluoro-4-trifluoromethyl-phenyl)-acetamide]
Second: N#Cc1ccc(CNc2ccc(NC(=O)Cc3cc(F)cc(F)c3)c(N3CCCC3)n2)cc1 [Compound 17, N-[6-(4-Cyano-benzylamino)-2-pyrrolidin-1-yl-pyridin-3-yl]-2-(3,5-difluoro-phenyl)-acetamide]
The activity at 0.03 µM of the first is lower: 306% for the first, 490% for the second.

First: O=C(Nc1ccc(NCc2ccc(F)cc2)nc1N1CCCC1)[C@@H]1C[C@H]1c1ccccc1 [Compound 7, (R)-2-Phenyl-cyclopropanecarboxylic acid [6-(4-fluoro-benzylamino)-2-pyrrolidin-1-yl-pyridin-3-yl]-amide]
Second: CC(C)(C)CC(=O)Nc1ccc(NCc2ccc(F)cc2)nc1N1CCCC1 [Compound 9, N-[6-(4-Fluoro-benzylamino)-2-pyrrolidin-1-yl-pyridin-3-yl]-3,3-dimethyl-butyramide]
The activity at 0.03 µM of the first is lower: 192% for the first, 239% for the second.

Going from `CC(C)(C)CC(=O)Nc1ccc(NCc2ccc3c(c2)OCO3)nc1N1CCCC1` [Compound 14, N-{6-[(Benzo[1,3]dioxol-5-ylmethyl)-amino]-2-pyrrolidin-1-yl-pyridin-3-yl}-3,3-dimethyl-butyramide] to `COc1ccc(CNc2ccc(NC(=O)Cc3cc(F)cc(F)c3)c(N3CCCC3)n2)cc1` [Compound 19], the activity at 0.03 µM rises from 155% to 842%.
